Legend:
Assay type in all cases: cell-based
[1] = test system: SiHa; assay: MTT assay, human cancer cells SiHa; details: for Platinum content calculated from IC50 of human cancer cells by MTT assay: IC50 converted to platinum concentration; for IC50 of human cancer cells by MTT assay: cervical cancer, HAP agents particle diameter 0.1 μm or less
Description: (§1) Effect of platinum tetrachloride/hydroxyapatite (PtCl4/HAP) and hexachloroplatinate/hydroxyapatite (H2PtCl6/HAP) against human cancer cells (MTT assay)
(§2) According to “in vitro toxicity test using MTT”, which is an ordinary test method, MTT assay was performed for PtCl4/HAP (particle diameter 0.1 μm or less), and H2PtCl6/HAP (particle diameter 0.1 μm or less) by using 19 types of human cancer cells. PtCl4/HAP and H2PtCl6/HAP were used by adjusting the final dispersion concentration to 1.0% in a dispersion liquid each containing 10% platinum as a theoretical value. For comparison, MTT assay was performed for PtCl4 and CDDP. PtCl4 was dissolved at an adequate dose, and then used after serial dilution with PBS (−). For CDDP, injection liquid from Malco was used.

[2] = test system: YES5; assay: MTT assay, human cancer cells YES5; details: for IC50 of human cancer cells by MTT assay: YES5, esophageal cancer, HAP agents particle diameter 0.1 μm or less; for Platinum content calculated from IC50 of human cancer cells by MTT assay: YES5, IC50 converted to platinum concentration
Description: as §1, §2

[3] = test system: LoVo; assay: MTT assay, human cancer cells LoVo; details: for Platinum content calculated from IC50 of human cancer cells by MTT assay: IC50 converted to platinum concentration; for IC50 of human cancer cells by MTT assay: colon cancer, HAP agents particle diameter 0.1 μm or less
Description: as §1, §2

[4] = test system: human lung cancer cell Lu65; assay: MTT assay, human lung cancer cell Lu65; details: for IC50 of human cancer cells by MTT assay: Lu65, lung cancer, HAP agents particle diameter 0.1 μm or less (Table 1); for Platinum content calculated from IC50 of human cancer cells by MTT assay: Lu65, IC50 converted to platinum concentration (Table 2)
Description: as §1, §2

[5] = test system: fibroblasts during proliferation stage; assay: Toxicity test during proliferation stage (MTT assay); details: rat fibroblasts, 48 hours; for IC50 in the toxicity test during proliferation stage: HAP agents particle diameter 0.1 μm or less
Excerpt: A male mature rat was deeply anesthetized with ether, and disinfected by wiping carefully its tail with alcohol. The tail end part was cut by several centimeters, and the skin was removed from coccyx. Tendon was attached to the coccyx, and by culturing the same, fibroblasts can be recovered. Coccyx part was further cut finely with a sterilized pair of scissors, and adhered on a sterilized plastic plate with the cut surface down. After resting the plate for a while, DMEM supplemented with 10% FBS was added thereto. In approximately one week, fibroblasts germinated from the coccyx part, and proliferated in the plate. The fibroblasts collected from rat tail end were used for the following experiment.
According to “in vitro toxicity test method using MTT” which is an ordinary test method, MTT assay was performed for PtCl4/HAP (particle diameter 0.1 μm or less) and H2PtCl6/HAP (particle diameter 0.1 μm or less). PtCl4/HAP and H2PtCl6/HAP were used by adjusting the final dispersion concentration to 1.0%, with a dispersion liquid each containing 10% platinum as a theoretical value. For comparison, MTT assay was performed for PtCl4 and CDDP. PtCl4 was dissolved at an adequate dose, and then used after serial dilution with PBS (−) For CDDP, injection liquid from Malco was used.
Fibroblasts during proliferation stage on the plate were peeled off with trypsin-EDTA, adjusted to 1×10^4/ml, and poured by aliquot of […] in a 96-well plate.
The 96-well plate added with fibroblasts was cultured for 24 hours, and samples serially diluted with PBS (−) were added by an amount of 10 μl. 48 hours after adding a test sample, 200 μl of PBS (−) was added to the 96-well plate, and approximately 1 min after, all the solution was removed. Immediately, 160 μl of DMSO was added to the plate. However, to the plates in which PtCl4/HAP and H2PtCl6/HAP were added, DMSO was added in an amount of 200 μl, respectively. Each plate was shaken for 5 min in a shaker, to dissolve completely the formed formazan. As it was believed that precipitation of PtCl4/HAP and H2PtCl6/HAP would suppress the colorization, the plates of PtCl4/HAP and H2PtCl6/HAP were rested for 5 min, and 160 μl of the supernatant was moved to another 96-well plate. Test samples for each cell and each concentration, the test was performed for 4 wells or more, and the optical density was measured by using a microplate at 550 nm.

| SMILES | Platinum content calculated from IC50 of human cancer cells by MTT assay [1] [ppm] | IC50 of human cancer cells by MTT assay [1] [ppm] | IC50 of human cancer cells by MTT assay [2] [ppm] | Platinum content calculated from IC50 of human cancer cells by MTT assay [2] [ppm] | Platinum content calculated from IC50 of human cancer cells by MTT assay [3] [ppm] | IC50 of human cancer cells by MTT assay [3] [ppm] | IC50 of human cancer cells by MTT assay [4] [ppm] | Platinum content calculated from IC50 of human cancer cells by MTT assay [4] [ppm] | Net Pt: platinum content wherein IC50 is converted to platinum concentration, proliferation stage [5] [ppm] | IC50 in the toxicity test during proliferation stage [5] [ppm] |
| --- | --- | --- | --- | --- | --- | --- | --- | --- | --- | --- |
| [NH2][Pt]([NH2])([Cl])[Cl] [CDDP, cisplatin] | 9.8 | 15.1 | 10.0 | 6.5 | 10.3 | 15.8 | 2.7 | 2.7 | 0.3 | 0.5 |
| [Cl][Pt]([Cl])([Cl])[Cl] [PtCl4, platinum tetrachloride] | 5.0 | 8.7 | 20.1 | 11.6 | 3.8 | 6.6 | 0.9 | 0.9 | 2.3 | 4.0 |

Source: patent US20080069896A1, “Antitumor Composition” (Kabushiki Kaisha Sangi, priority 2004, published 2008)
